Data reported in article PMC10107917 (ACS Medicinal Chemistry Letters, 2023).
Like-named read-outs stand apart in the source and are kept apart here. Bridge positions count the residues as written; N and C are the ends. Peptide text beside a SMILES is read from it.

Columns and labels:
human recombinant furin = target: T1, human recombinant furin (Homo sapiens, UniProt P09958); type: biochemical; settings: for Ki / IC50: ± SEM; for Ki: Cheng-Prusoff from IC50, competitive mode assumed, Km 1.90 µM; for IC50: triplicate, substrate 20 µM
T1 construct: Soluble human recombinant furin was kindly gifted; gift of Dr Anna Kwiatkowska (group of Prof. Robert Day, Université de Sherbrooke)
T1 sequence (P09958 108-715 limits assumed): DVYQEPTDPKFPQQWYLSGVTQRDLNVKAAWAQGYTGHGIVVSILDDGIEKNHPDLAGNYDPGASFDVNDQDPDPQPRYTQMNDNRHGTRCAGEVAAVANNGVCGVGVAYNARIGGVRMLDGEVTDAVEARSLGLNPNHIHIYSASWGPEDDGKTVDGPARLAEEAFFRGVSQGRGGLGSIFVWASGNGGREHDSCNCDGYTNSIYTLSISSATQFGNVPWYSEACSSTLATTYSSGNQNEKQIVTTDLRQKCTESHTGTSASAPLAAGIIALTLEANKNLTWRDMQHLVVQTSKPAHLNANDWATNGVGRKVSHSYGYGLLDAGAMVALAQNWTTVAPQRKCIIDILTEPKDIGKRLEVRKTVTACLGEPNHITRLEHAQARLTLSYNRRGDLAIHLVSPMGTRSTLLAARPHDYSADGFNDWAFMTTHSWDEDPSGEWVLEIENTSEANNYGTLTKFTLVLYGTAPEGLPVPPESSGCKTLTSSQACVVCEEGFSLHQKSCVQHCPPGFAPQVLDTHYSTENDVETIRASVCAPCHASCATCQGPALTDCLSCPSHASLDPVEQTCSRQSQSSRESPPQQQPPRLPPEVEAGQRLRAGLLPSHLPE
Procedure: Initially, the activities of the furin inhibitors were screened at three concentrations, i.e., 2.4, 24.0, and 77.0 nM (Figure 4). For selected peptides 3, 5, and 6 and the reference FI, the inhibitory constants (Ki) were calculated (Table 2). Except for the bicyclic peptide 4, all of the inhibitors almost completely abolished the enzyme activity at the highest tested concentration. Peptide 4 was explicitly the weakest inhibitor in the series, also when compared with its monocyclic disulfide-bridged counterpart 1. When the inhibitory activities were analyzed at the lowest tested concentration (2.4 nM), three peptides (3, 5, and 6) reduced the furin activity to less than 50% of its initial noninhibited activity. All of them have an additional basic amino acid at their N-termini (in MD simulations this is depicted as a residue with number “0”). […] Such close inhibitory potency was not observed in the case of an analogous pair, i.e., 2 and 5. […] The two disulfide-bridged peptides, FI and 1, differ only at the P4 position, having Lys and Arg, respectively. […]
The IC50 values (inhibitor concentrations giving 50% inhibition of enzyme activity) were calculated from plots of enzyme activity (% of control sample) versus the inhibitor’s concentration using a four-parameter fit model (GraFit 5.0.12 Erithacus Software Ltd.). The IC50 values were determined from triplicate measurements with at least seven different inhibitor concentrations. The K i values […] were calculated using the Cheng-Prusoff equation, assuming the competitive mode of inhibition, according to the following relationship: IC50 = K i(1+S/Km). All measurements were performed using a Fluostar Omega microplate reader (BMG Labtech, Germany) and 96-well black plates (BRAND, Germany). Recombinant human matriptase-1/ST14 catalytic domain was purchased from R&D Systems, USA. Recombinant human matriptase-2 was obtained from Enzo Life Sciences, Switzerland.
Soluble human recombinant furin was kindly gifted by Dr Anna Kwiatkowska (group of Prof. Robert Day from Université de Sherbrooke).4
The following assay buffers were used: […] (matriptase-1 and matriptase-2), pH 7.5 100 mM HEPES with 1 mM CaCl 2 and 1.8 mg/mL BSA (furin). The substrates used in the assays were as follows: for matriptase-1 and matriptase-2 Boc-Gln-Ala-Arg-AMC (Pepta Nova, Germany) in final concentration of 5 µM, for furin […] (Pepta Nova, Germany) in final concentration of 20 µM. Enzymes concentrations were as follows: 1.25 ng/mL of matriptase-1, 1.51 U/mL for matriptase-2, and 1.1 nM for furin. In the case of matriptase-1 and matripase-2 concentrations were calculated according to information provided by the suppliers.
In short, the tested compounds were added to the appropriate protease in different concentrations and incubated in an assay buffer at 37 °C for 30 min. After this time, a solution of appropriate substrate was added. Reactions were monitored for at least 40 min at 37 °C. The final volume in each well was 200 µL for matriptases and 100 µL for furin. Measurements were carried out using excitation and emission wavelengths of 380 nm and 450 nm. The percentage inhibition of an enzyme was calculated relative to the control sample without an inhibitor. The K m value for furin substrate was determined by incubating the enzyme with its substrate in various concentrations as recommended.5 Plots of the substrate concentration versus the initial reaction velocity were analyzed according to Michaelis-Menten equation using GraFit 5.0.12 Erithacus Software Ltd. A double reciprocal (Lineweaver-Burk) plot was used to determine the Michaelis constant K m value. K m value determined for furin was 1.90 µM.
Total furin-like enzyme inhibition/activity in PANC-1 cell lysates
Cell line and cell culture. The pancreatic cancer cell line, PANC-1, was obtained from the American Type Culture Collection, ATCC (Manassas, USA). […]

furin = settings: cited from earlier work

Structure (SMILES)	furin activity versus control with no inhibitor added (human recombinant furin; inhibitor 2.4 nM) [%]	furin activity versus control with no inhibitor added (human recombinant furin; inhibitor 24.0 nM) [%]	furin activity versus control with no inhibitor added (human recombinant furin; inhibitor 77.0 nM (highest tested concentration)) [%]	Ki (human recombinant furin) [pM]	IC50 (human recombinant furin) [pM]	Ki (furin) [pM]
CC[C@H](C)[C@@H]1NC(=O)[C@@H]2CCCN2C(=O)[C@@H]2CCCN2C(=O)[C@H]([C@@H](C)CC)NC(=O)[C@H](CO)NC(=O)[C@H](CCCCN)NC(=O)[C@H](CCCCN)NC(=O)[C@@H](NC(=O)[C@H](CCCNC(=N)N)NC(=O)[C@@H](N)CCCCN)CSSC[C@@H](C(=O)N[C@@H](Cc2ccccc2)C(N)=O)NC1=O [FI, Lys-Arg-Cys(&)-Lys-Lys-Ser-Ile-Pro-Pro-Ile-Cys(&)-Phe-NH2, reference compound] (H-KRCKKSIPPICF-NH2; disulfide 3-11; N-terminus assumed)	66.76	9.86	0.31	380 ± 20	4420 ± 220	490
CC[C@H](C)[C@@H]1NC(=O)[C@@H]2CCCN2C(=O)[C@@H]2CCCN2C(=O)[C@H]([C@@H](C)CC)NC(=O)[C@H](CO)NC(=O)[C@H](CCCCN)NC(=O)[C@H](CCCCN)NC(=O)[C@@H](NC(=O)[C@H](CCCNC(=N)N)NC(=O)[C@H](CCCNC(=N)N)NC(=O)[C@@H](N)CCCNC(=N)N)CSSC[C@@H](C(=O)N[C@@H](Cc2ccccc2)C(N)=O)NC1=O [inhibitor 3, Arg-Arg-Arg-Cys(&)-Lys-Lys-Ser-Ile-Pro-Pro-Ile-Cys(&)-Phe-NH2] (H-RRRCKKSIPPICF-NH2; disulfide 4-12)				270 ± 20	3070 ± 200	
CC[C@H](C)[C@@H]1NC(=O)[C@@H]2CCCN2C(=O)[C@@H]2CCCN2C(=O)[C@H]([C@@H](C)CC)NC(=O)[C@H](CO)NC(=O)[C@H](CCCCN)NC(=O)[C@H](CCCCN)NC(=O)[C@@H]2CSSC[C@H](NC1=O)C(=O)N[C@@H](Cc1ccccc1)C(=O)N[C@@H](CCCCN)C(=O)N[C@@H](CCCNC(=N)N)C(=O)N[C@@H](CCCNC(=N)N)C(=O)N2 [inhibitor 5, &^1Lys-Arg-Arg-Cys(&^2)-Lys-Lys-Ser-Ile-Pro-Pro-Ile-Cys(&^2)-Phe&^1] (cyclo(KRRCKKSIPPICF); disulfide 4-12)				210 ± 10	2410 ± 120	
CC[C@H](C)[C@@H]1NC(=O)[C@@H]2CCCN2C(=O)[C@@H]2CCCN2C(=O)[C@H]([C@@H](C)CC)NC(=O)[C@H](CO)NC(=O)[C@H](CCCCN)NC(=O)[C@H](CCCCN)NC(=O)[C@@H]2CSSC[C@H](NC1=O)C(=O)N[C@@H](Cc1ccccc1)C(=O)N[C@@H](CCCNC(=N)N)C(=O)N[C@@H](CCCNC(=N)N)C(=O)N[C@@H](CCCNC(=N)N)C(=O)N2 [inhibitor 6, &^1Arg-Arg-Arg-Cys(&^2)-Lys-Lys-Ser-Ile-Pro-Pro-Ile-Cys(&^2)-Phe&^1] (cyclo(RRRCKKSIPPICF); disulfide 4-12)				250 ± 10	2910 ± 170	
